Data: patent US20220370385A1, “COMPOSITIONS FOR USE IN INHIBITING SRC KINASE AND TREATING AND PREVENTING ASSOCIATED DISORDERS” (Enzene Biosciences Ltd., priority 2019, published 2022)

How the values were obtained:
[1] = Maximum tolerated dose study, oral gavage; type: in vivo; conditions: single oral gavage
Description: A maximum tolerated dose (MTD) study was carried out with E05. In MTD study, group of 3 male and 3 female rats were dosed at 175 (group 1), 550 (group 2), 1750 (group 3) and 2000 (group 4) mg/kg b. wt.

[2] = Pharmacokinetic study after single oral administration; type: in vivo; conditions: Sprague Dawley, rat, plasma, male rats
Description: A study to determine the pharmacokinetics of E05 after single oral (10 mg/kg) administration in male Sprague Dawley rats was carried out. […] The absolute oral bioavailability of Small molecule was 80% (FIG. 18).

Which “Mortality on Experimental Day 1” value ([1]; Female G1 175 mg/kg b. wt.) does the source give for O=C(O)CCc1ccc(O)c(O)c1 [E05, 3-(3,4-Dihydroxyphenyl) propanoic acid] here?
Its value is 0.

And the “Mortality on Experimental Day 2” value ([1]; Female G1 175 mg/kg b. wt.)?
The value was 0.

And the “Mortality on Experimental Day 3” value ([1]; Female G1 175 mg/kg b. wt.)?
The value was 0.

And the “Mortality on Experimental Day 4” value ([1]; Female G1 175 mg/kg b. wt.)?
The value was 0.

What about the “Morbidity on Experimental Day 1” value ([1]; Female G2 550 mg/kg b. wt.) of the same compound?
Its value is 0.

What about the “Morbidity on Experimental Day 2” value ([1]; Female G2 550 mg/kg b. wt.) of the same compound?
The value was 0.

What about the “Morbidity on Experimental Day 3” value ([1]; Female G2 550 mg/kg b. wt.) of the same compound?
Its value is 0.

And the “Morbidity on Experimental Day 4” value ([1]; Female G2 550 mg/kg b. wt.)?
Its value is 0.

And the “Mortality on Experimental Day 1” value ([1]; Female G2 550 mg/kg b. wt.)?
The value was 0.

What about the “Mortality on Experimental Day 2” value ([1]; Female G2 550 mg/kg b. wt.) of the same compound?
The value was 0.

What about the “Mortality on Experimental Day 3” value ([1]; Female G2 550 mg/kg b. wt.) of the same compound?
Its value is 0.

And the “Mortality on Experimental Day 4” value ([1]; Female G2 550 mg/kg b. wt.)?
The value was 0.

And the “Morbidity on Experimental Day 1” value ([1]; Female G3 1750 mg/kg b. wt.)?
The value was 0.

What about the “Morbidity on Experimental Day 2” value ([1]; Female G3 1750 mg/kg b. wt.) of the same compound?
Its value is 0.

What about the “Morbidity on Experimental Day 3” value ([1]; Female G3 1750 mg/kg b. wt.) of the same compound?
Its value is 0.

What about the “Morbidity on Experimental Day 4” value ([1]; Female G3 1750 mg/kg b. wt.) of the same compound?
Its value is 0.

And the “Mortality on Experimental Day 1” value ([1]; Female G3 1750 mg/kg b. wt.)?
The value was 0.

And the “Mortality on Experimental Day 2” value ([1]; Female G3 1750 mg/kg b. wt.)?
Its value is 0.

And the “Mortality on Experimental Day 3” value ([1]; Female G3 1750 mg/kg b. wt.)?
Its value is 0.

What about the “Mortality on Experimental Day 4” value ([1]; Female G3 1750 mg/kg b. wt.) of the same compound?
The value was 0.

And the “Morbidity on Experimental Day 1” value ([1]; Female G4 2000 mg/kg b. wt.)?
The value was 0.

What about the “Morbidity on Experimental Day 2” value ([1]; Female G4 2000 mg/kg b. wt.) of the same compound?
The value was 0.

And the “Morbidity on Experimental Day 3” value ([1]; Female G4 2000 mg/kg b. wt.)?
The value was 0.

And the “Morbidity on Experimental Day 4” value ([1]; Female G4 2000 mg/kg b. wt.)?
Its value is 0.

What about the “Mortality on Experimental Day 1” value ([1]; Female G4 2000 mg/kg b. wt.) of the same compound?
The value was 0.

And the “Mortality on Experimental Day 2” value ([1]; Female G4 2000 mg/kg b. wt.)?
The value was 0.

What about the “Mortality on Experimental Day 3” value ([1]; Female G4 2000 mg/kg b. wt.) of the same compound?
The value was 0.

What about the “Mortality on Experimental Day 4” value ([1]; Female G4 2000 mg/kg b. wt.) of the same compound?
The value was 0.

What about the “Morbidity on Experimental Day 1” value ([1]; Male G1 175 mg/kg b. wt.) of the same compound?
The value was 0.

And the “Morbidity on Experimental Day 2” value ([1]; Male G1 175 mg/kg b. wt.)?
Its value is 0.

What about the “Morbidity on Experimental Day 3” value ([1]; Male G1 175 mg/kg b. wt.) of the same compound?
Its value is 0.

What about the “Morbidity on Experimental Day 4” value ([1]; Male G1 175 mg/kg b. wt.) of the same compound?
Its value is 0.

And the “Mortality on Experimental Day 1” value ([1]; Male G1 175 mg/kg b. wt.)?
The value was 0.

And the “Mortality on Experimental Day 2” value ([1]; Male G1 175 mg/kg b. wt.)?
The value was 0.

What about the “Mortality on Experimental Day 3” value ([1]; Male G1 175 mg/kg b. wt.) of the same compound?
Its value is 0.

And the “Mortality on Experimental Day 4” value ([1]; Male G1 175 mg/kg b. wt.)?
The value was 0.

What about the “Morbidity on Experimental Day 1” value ([1]; Male G2 550 mg/kg b. wt.) of the same compound?
The value was 0.

What about the “Morbidity on Experimental Day 2” value ([1]; Male G2 550 mg/kg b. wt.) of the same compound?
The value was 0.

What about the “Morbidity on Experimental Day 3” value ([1]; Male G2 550 mg/kg b. wt.) of the same compound?
Its value is 0.

What about the “Morbidity on Experimental Day 4” value ([1]; Male G2 550 mg/kg b. wt.) of the same compound?
The value was 0.

And the “Mortality on Experimental Day 1” value ([1]; Male G2 550 mg/kg b. wt.)?
Its value is 0.

What about the “Mortality on Experimental Day 2” value ([1]; Male G2 550 mg/kg b. wt.) of the same compound?
The value was 0.

What about the “Mortality on Experimental Day 3” value ([1]; Male G2 550 mg/kg b. wt.) of the same compound?
The value was 0.

What about the “Mortality on Experimental Day 4” value ([1]; Male G2 550 mg/kg b. wt.) of the same compound?
Its value is 0.

And the “Morbidity on Experimental Day 1” value ([1]; Male G3 1750 mg/kg b. wt.)?
Its value is 0.

And the “Morbidity on Experimental Day 2” value ([1]; Male G3 1750 mg/kg b. wt.)?
Its value is 0.

What about the “Morbidity on Experimental Day 3” value ([1]; Male G3 1750 mg/kg b. wt.) of the same compound?
The value was 0.

And the “Morbidity on Experimental Day 4” value ([1]; Male G3 1750 mg/kg b. wt.)?
Its value is 0.

And the “Mortality on Experimental Day 1” value ([1]; Male G3 1750 mg/kg b. wt.)?
Its value is 0.

What about the “Mortality on Experimental Day 2” value ([1]; Male G3 1750 mg/kg b. wt.) of the same compound?
The value was 0.

What about the “Mortality on Experimental Day 3” value ([1]; Male G3 1750 mg/kg b. wt.) of the same compound?
Its value is 0.

And the “Mortality on Experimental Day 4” value ([1]; Male G3 1750 mg/kg b. wt.)?
Its value is 0.

What about the “Morbidity on Experimental Day 1” value ([1]; Male G4 2000 mg/kg b. wt.) of the same compound?
Its value is 0.

And the “Morbidity on Experimental Day 2” value ([1]; Male G4 2000 mg/kg b. wt.)?
Its value is 0.

And the “Morbidity on Experimental Day 3” value ([1]; Male G4 2000 mg/kg b. wt.)?
The value was 0.

What about the “Morbidity on Experimental Day 4” value ([1]; Male G4 2000 mg/kg b. wt.) of the same compound?
The value was 0.

And the “Mortality on Experimental Day 1” value ([1]; Male G4 2000 mg/kg b. wt.)?
The value was 0.

What about the “Mortality on Experimental Day 2” value ([1]; Male G4 2000 mg/kg b. wt.) of the same compound?
The value was 0.

And the “Mortality on Experimental Day 3” value ([1]; Male G4 2000 mg/kg b. wt.)?
The value was 0.

And the “Mortality on Experimental Day 4” value ([1]; Male G4 2000 mg/kg b. wt.)?
Its value is 0.

And the bioavailability ([2]; oral 10 mg/kg, read-out: absolute oral bioavailability)?
The bioavailability was 80%.

And the AUC(0-t) ([2]; single oral gavage 10 mg/kg)?
Its AUC(0-t) is 151 ng·h/mL.

And the Cmax ([2]; single oral gavage 10 mg/kg)?
Its Cmax is 306 ng/mL.

What about the Tmax ([2]; single oral gavage 10 mg/kg, read-out: mean time to reach peak plasma concentration (Tmax)) of the same compound?
Its Tmax is 15 min.
